Measurements taken from US4027039A (priority 1975, dated 1977).
Where “and” joins values, the source holds several entries; their conditions need not be identical. Equal entries are not always repeated. Where two headings read alike, the source gives them in different places.

Columns and labels:
[1] = tested on: Influenza PR 8 virus; experiment: Influenza PR 8 in mice, subcutaneous; late read day 6 (Table 37), 8 (Table 47); type: in vivo, mouse
[2] = tested on: Influenza PR 8 virus; experiment: Influenza PR 8 in mice, intraperitoneal (Table 47); type: in vivo, mouse
[3] = tested on: Neurovaccinia virus; experiment: Neurovaccinia in mice; settings: single dose level, three instances
[4] = tested on: Vaccinia virus; parameters: species or system fertile eggs; settings: various concentrations
[5] = tested on: Vaccinia virus; type: in vivo, rabbit
[6] = tested on: viral infections; experiment: Antiviral screening in animals, general statements; settings: mouse, in vivo
[7] = tested on: Herpes virus
[8] = tested on: Herpes virus; experiment: Herpes virus in chicken eggs, single dose 24 hours pre-infection; type: in vivo, chick embryo
[9] = tested on: Vaccinia IHD virus; type: in vivo, mouse
[10] = tested on: Influenza PR 8 virus; experiment: Influenza PR 8 in mice, oral; schedule by table; late read day 6 (Table 37), 7 (33, 36), 8 (32, 35, 47), 10 (38); control fraction 18/20 (Table 32), 19/20 (Table 35), else 100%; type: in vivo, mouse
[11] = tested on: Influenza, Ann Arbor virus; experiment: Influenza Ann Arbor in mice, oral; schedule by table; late read day 5 (Tables 15, 25, 29, 30), 6 (18, 20, 22, 23, 26, 27, 28, 54), 7 (14, 19, 21, 24, 53, 56), 8 (16, 17, 51), 9 (11, 55); type: in vivo, mouse
[12] = tested on: Mengo virus; experiment: Mengo virus in mice, oral; type: in vivo, mouse
Source text: The results are illustrated in Table 43.

**Q.** Which results are given for `NNC(N)=S` [Thiosemicarbazide, thiosemicarbazide]?
**A.** No. animals surviving after 6-8 days ([1]; total dose 5 μg): 3; Survivors ([1]; total dose 5 μg): 3; Survivors ([1]; total dose .0005 μg): 0; Survivors ([1]; total dose .005 μg): 0; Survivors ([2]; total dose 5 μg): 0; Survivors ([2]; total dose .005 μg): 0; Survivors ([2]; total dose .05 μg): 0; Survivors ([2]; total dose .5 μg): 0; surviving animals [3]: one; effect on pox formation on the membrane [4]: No effect; approximate percentage confluency of the pox ([5]; 0.0000025 μg/kg, Test 2): 85%; approximate percentage confluency of the pox ([5]; 0.000025 μg/kg, Test 2): 25%; approximate percentage confluency of the pox ([5]; 0.00025 μg/kg, Test 2): 40%; approximate percentage confluency of the pox ([5]; 0.0025 μg/kg, Duplicate Experiments): 75% and 60%; approximate percentage confluency of the pox ([5]; 0.0025 μg/kg, Test 1): 2%; approximate percentage confluency of the pox ([5]; 0.0025 μg/kg, Test 2): 80%; approximate percentage confluency of the pox ([5]; 0.0025 μg/kg, Test 3): 85%; approximate percentage confluency of the pox ([5]; 0.025 μg/kg, Duplicate Experiments): 75% and 80%; approximate percentage confluency of the pox ([5]; 0.025 μg/kg, Test 1): 5%; approximate percentage confluency of the pox ([5]; 0.025 μg/kg, Test 2): 5%; approximate percentage confluency of the pox ([5]; 0.025 μg/kg, Test 3): 75% and 90%; approximate percentage confluency of the pox ([5]; 0.25 μg/kg, Test 1): 10%; approximate percentage confluency of the pox ([5]; 0.25 μg/kg, Test 2): 10%; approximate percentage confluency of the pox ([5]; 0.25 μg/kg, Test 3): 30% and 40%; approximate percentage confluency of the pox ([5]; 2.5 μg/kg, Duplicate Experiments): 30% and 20%; approximate percentage confluency of the pox ([5]; 2.5 μg/kg, Test 1): 50%; approximate percentage confluency of the pox ([5]; 2.5 μg/kg, Test 2): 80%; approximate percentage confluency of the pox ([5]; 2.5 μg/kg, Test 3): 30% and 20%; approximate percentage confluency of the pox ([5]; 25 μg/kg, Test 1): 80%; approximate percentage confluency of the pox ([5]; 25 μg/kg, Test 2): 10%; approximate percentage confluency of the pox ([5]; 250 μg/kg, Test 1): 80%; significance (T test) ([5]; dose 0.25 μg/kg): < .01; significance (T test) ([5]; dose 2.5 μg/kg): < .01; effect on pox formation ([5]; rabbit, in vivo): highly significant and reproducible protective effects; activity in words [6]: active; activity in words ([7]; mouse, in vivo): quite significant protection; No. animals surviving when 100% (or given fraction) of controls are dead ([7]; total dose .000005 μg): 0; Survivors ([7]; total dose .000005 μg): 0; No. animals surviving after 6-9 days ([7]; total dose .00005 μg): 6; No. animals surviving when 100% (or given fraction) of controls are dead ([7]; total dose .00005 μg): 3; Survivors ([7]; total dose .00005 μg): 3; No. animals surviving after 6-9 days ([7]; total dose .005 μg): 5 and 3 and 6; No. animals surviving after 6-9 days ([7]; total dose .5 μg): 3; Deaths on day 1 ([8]; 2 μg): 3; Deaths on day 3 ([8]; 2 μg): 5; Deaths on day 4 ([8]; 2 μg): 3; No. dying 5-22 day ([8]; 2 μg): 0; No. living longer than controls ([8]; 2 μg): 0; Total deaths, 4th day ([8]; 2 μg): 12; Deaths on day 2 ([8]; 20 μg): 4; Deaths on day 3 ([8]; 20 μg): 6; No. dying 5-22 day ([8]; 20 μg): 0; No. living longer than controls ([8]; 20 μg): 0; Total deaths, 4th day ([8]; 20 μg): 12; Deaths on day 1 ([8]; .00005 μg): 2; Deaths on day 2 ([8]; .00005 μg): 5; Deaths on day 3 ([8]; .00005 μg): 2; No. dying 5-22 day ([8]; .00005 μg): 0; Total deaths, 4th day ([8]; .00005 μg): 10; Deaths on day 1 ([8]; .0005 μg): 2; Deaths on day 2 ([8]; .0005 μg): 3; Deaths on day 3 ([8]; .0005 μg): 2; Deaths on day 4 ([8]; .0005 μg): 3; No. dying 5-22 day ([8]; .0005 μg): 0; Total deaths, 4th day ([8]; .0005 μg): 10; Deaths on day 1 ([8]; .005 μg): 4; Deaths on day 2 ([8]; .005 μg): 3; Deaths on day 3 ([8]; .005 μg): 3; No. living longer than controls ([8]; .005 μg): 2; Total deaths, 4th day ([8]; .005 μg): 10; Deaths on day 2 ([8]; .05 μg): 3; Deaths on day 3 ([8]; .05 μg): 5; No. dying 5-22 day ([8]; .05 μg): 0; Total deaths, 4th day ([8]; .05 μg): 9; Deaths on day 1 ([8]; .5 μg): 3; Deaths on day 2 ([8]; .5 μg): 4; Deaths on day 3 ([8]; .5 μg): 2; Deaths on day 4 ([8]; .5 μg): 2; No. dying 5-22 day ([8]; .5 μg): 0; Total deaths, 4th day ([8]; .5 μg): 11; Total no. living longer than controls ([8]; all doses): 7; Statistical Significance of Tail Lesions ([9]; 10 ng, day 12): < .05; Statistical Significance of Tail Lesions ([9]; 10 ng, day 14): < .05; Statistical Significance of Tail Lesions ([9]; 10 ng, day 17): < .05; Statistical Significance of Tail Lesions ([9]; 10 ng, day 21): < .05; Statistical Significance of Tail Lesions ([9]; 1 μg, day 5): < .01; Statistical Significance of Tail Lesions ([9]; 1 μg, day 6): < .01; Statistical Significance of Tail Lesions ([9]; 1 μg, day 7): < .01; Statistical Significance of Tail Lesions ([9]; 1 μg, day 8): < .01; Statistical Significance of Tail Lesions ([9]; 1 μg, day 10): < .01; Statistical Significance of Tail Lesions ([9]; 1 μg, day 11): < .01; Statistical Significance of Tail Lesions ([9]; 1 μg, day 12): < .01; Statistical Significance of Tail Lesions ([9]; 1 μg, day 14): < .01; Statistical Significance of Tail Lesions ([9]; 1 μg, day 17): < .01; Statistical Significance of Tail Lesions ([9]; 1 μg, day 21): < .01; Statistical Significance of Tail Lesions ([9]; 10 [μg], day 6): < .01; Statistical Significance of Tail Lesions ([9]; 10 [μg], day 10): < .05; Statistical Significance of Tail Lesions ([9]; 10 [μg], day 11): < .01; Statistical Significance of Tail Lesions ([9]; 10 [μg], day 12): < .01; Statistical Significance of Tail Lesions ([9]; 10 [μg], day 14): < .01; Statistical Significance of Tail Lesions ([9]; 10 [μg], day 17): < .01; Statistical Significance of Tail Lesions ([9]; 10 [μg], day 21): < .01; Statistical Significance of Tail Lesions ([9]; 100 [ng], day 8): < .05; Statistical Significance of Tail Lesions ([9]; 100 [ng], day 10): < .01; Statistical Significance of Tail Lesions ([9]; 100 [ng], day 11): < .01; Statistical Significance of Tail Lesions ([9]; 100 [ng], day 12): < .01; Statistical Significance of Tail Lesions ([9]; 100 [ng], day 14): < .01; Statistical Significance of Tail Lesions ([9]; 100 [ng], day 17): < .01; Statistical Significance of Tail Lesions ([9]; 100 [ng], day 21): < .01; No. animals surviving after 6-10 days ([10]; total dose 5 μg): 3; No. animals surviving after 6-10 days ([10]; total dose .005 μg): 3; No. animals surviving when 100% (or given fraction) of controls are dead ([10]; total dose .005 μg): 3; Survivors ([10]; total dose .005 μg): 3; No. animals surviving when 100% (or given fraction) of controls are dead ([10]; total dose .5 μg): 0; Survivors ([10]; total dose .5 μg): 0; No. animals surviving after 5-9 days ([11]; total dose .05 μg): 5; No. animals surviving after 5-9 days ([11]; total dose .5 μg): 3; Survivors ([11]; total dose .5 μg): 0; No. animals surviving after 5-9 days ([11]; total dose .5 μg, listed as thiosemicarbazide): 7 and 6; Survivors ([12]; total dose .0000005 μg): 0; No. animals surviving after 6 days ([12]; total dose .000005 μg): 2; No. animals surviving after 6 days ([12]; total dose .00005 μg): 5; Survivors ([12]; total dose .0005 μg): 0; Survivors ([12]; total dose .005 μg): 0
